Test results published in US8680012B2, “4-phenyl-pyrane-3,5-diones,4-phenyl-thiopyrane-3,6-diones and cyclohexanetriones as novel herbicides” (Syngenta Crop Protection LLC, priority 2006, dated 2014).

Key:
Type in all cases: in vivo
[1] = test system: Echinochloa crus-galli (ECHCG); test: Example B post-emergence herbicidal activity, glasshouse pot test; conditions: 312 h, rate 250 g/ha, evaluated after 13 days, read-out: Post-emergence activity ECHCG (100=total damage to plant; 0=no damage to plant)
Method: (§1) Seeds of a variety of test species were sown in standard soil in pots. After cultivation for one day (pre-emergence) or after 8 days cultivation (post-emergence) under controlled conditions in a glasshouse (at 24/16° C., day/night; 14 hours light; 65% humidity), the plants were sprayed with an aqueous spray solution derived from the formulation of the technical active ingredient in acetone/water (50:50) solution containing 0.5% Tween 20 (polyoxyethelyene sorbitan monolaurate, CAS RN 9005-64-5). The test plants were then grown in a glasshouse under controlled conditions in a glasshouse (at 24/16° C., day/night; 14 hours light; 65% humidity) and watered twice daily. After 13 days for pre and post-emergence, the test was evaluated (100=total damage to plant; 0=no damage to plant).
(§2) Alopecurus myosuroides (ALOMY), Avena fatua (AVEFA), Setaria faberi (SETFA), Echinochloa crus-galli (ECHCG), Solanum nigrum (SOLNI) and Amaranthus retroflexus (AMARE)

Setaria faberi (SETFA) [2] = test: as above; conditions: 312 h, rate 250 g/ha, evaluated after 13 days, read-out: Post-emergence activity SETFA (100=total damage to plant; 0=no damage to plant)
Method: as §1, §2

[3] = test system: Amaranthus retroflexus (AMARE); test: as above; conditions: 312 h, rate 250 g/ha, evaluated after 13 days, read-out: Post-emergence activity AMARE (100=total damage to plant; 0=no damage to plant)
Method: as §1, §2

[4] = test system: Alopecurus myosuroides (ALOMY); test: as above; conditions: 312 h, rate 250 g/ha, evaluated after 13 days, read-out: Post-emergence activity ALOMY (100=total damage to plant; 0=no damage to plant)
Method: as §1, §2

Avena fatua (AVEFA) [5] = test: as above; conditions: 312 h, rate 250 g/ha, evaluated after 13 days, read-out: Post-emergence activity AVEFA (100=total damage to plant; 0=no damage to plant)
Method: as §1, §2

[6] = test system: Echinochloa crus-galli (ECHCG); test: Example B pre-emergence herbicidal activity, glasshouse pot test; conditions: 312 h, rate 250 g/ha, evaluated after 13 days, read-out: Pre-emergence activity ECHCG (100=total damage to plant; 0=no damage to plant)
Method: as §1, §2

Setaria faberi (SETFA) [7] = test: as above; conditions: 312 h, rate 250 g/ha, evaluated after 13 days, read-out: Pre-emergence activity SETFA (100=total damage to plant; 0=no damage to plant)
Method: as §1, §2

[8] = test system: Amaranthus retroflexus (AMARE); test: as above; conditions: 312 h, rate 250 g/ha, evaluated after 13 days, read-out: Pre-emergence activity AMARE (100=total damage to plant; 0=no damage to plant)
Method: as §1, §2

[9] = test system: Alopecurus myosuroides (ALOMY); test: as above; conditions: 312 h, rate 250 g/ha, evaluated after 13 days, read-out: Pre-emergence activity ALOMY (100=total damage to plant; 0=no damage to plant)
Method: as §1, §2

Avena fatua (AVEFA) [10] = test: as above; conditions: 312 h, rate 250 g/ha, evaluated after 13 days, read-out: Pre-emergence activity AVEFA (100=total damage to plant; 0=no damage to plant)
Method: as §1, §2

SMILES | pest or weed control at 250 g/ha [1] | pest or weed control at 250 g/ha (Setaria faberi (SETFA) [2]) | pest or weed control at 250 g/ha [3] | pest or weed control at 250 g/ha [4] | pest or weed control at 250 g/ha (Avena fatua (AVEFA) [5]) | pest or weed control at 250 g/ha [6] | pest or weed control at 250 g/ha (Setaria faberi (SETFA) [7]) | pest or weed control at 250 g/ha [8] | pest or weed control at 250 g/ha [9] | pest or weed control at 250 g/ha (Avena fatua (AVEFA) [10])
CCc1ccc(-c2ccc(Cl)cc2Cl)cc1C1=C(O)C(C)(C)OC(C)C1=O (single isomer, unassigned) [Compound A-71] | 100% | 100% | 100% | 30% | 30% | 80% | 100% | 0% | 40% | 20%
CC[C@]12CC[C@H](O1)C(=O)C(c1cc(-c3ccc(Cl)cc3)ccc1C)=C2O (single isomer, unassigned) [Compound A-80] | 100% | 90% | 0% | 30% | 0% | 40% | 70% | 0% | 30% | 0%
CCc1ccc(-c2ccc(Cl)cc2)cc1C1=C(O)[C@@]2(C)CC[C@](C)(O2)C1=O (single isomer, unassigned) [Compound A-83] | 100% | 100% | 0% | 80% | 80% | 90% | 100% | 0% | 50% | 40%
CCc1ccc(-c2ccc(Cl)c(Cl)c2)cc1C1=C(O)[C@@]2(C)CC[C@H](O2)C1=O (single isomer, unassigned) [Compound A-123] | 100% | 100% | 0% | 90% | 70% | 70% | 100% | 0% | 50% | 80%
CCOC[C@]12CC[C@H](O1)C(=O)C(c1cc(-c3ccc(Cl)cc3)ccc1CC)=C2O (single isomer, unassigned) [Compound A-124] | 100% | 100% | 20% | 80% | 90% | 70% | 100% | 0% | 50% | 60%
CCc1ccc(-c2ccc(Cl)c(F)c2)cc1C1=C(O)[C@@]2(C)CC[C@H](O2)C1=O (single isomer, unassigned) [Compound A-125] | 100% | 100% | 0% | 100% | 90% | 90% | 100% | 0% | 70% | 80%
CCOC[C@]12CC[C@H](O1)C(=O)C(c1cc(-c3ccc(Cl)c(F)c3)ccc1CC)=C2O (single isomer, unassigned) [Compound A-126] | 100% | 100% | 0% | 70% | 90% | 80% | 100% | 0% | 30% | 90%
CCc1ccc(-c2ccc(Cl)cc2Cl)cc1C1=C(O)[C@@]2(C)CC[C@H](O2)C1=O (single isomer, unassigned) [Compound A-128] | 100% | 100% | 0% | 80% | 90% | 70% | 90% | 0% | 40% | 80%
CCOC[C@]12CC[C@H](O1)C(=O)C(c1cc(-c3ccc(Cl)c(Cl)c3)ccc1CC)=C2O (single isomer, unassigned) [Compound A-129] | 90% | 80% | 0% | 70% | 80% | 40% | 90% | 0% | 20% | 30%
CCc1ccc(-c2ccc(Cl)cc2Cl)cc1C1=C(O)C(C)(C)SC(C)(C)C1=O (single isomer, unassigned) [Compound C-4] | 70% | 70% | 20% | 60% | 30% | 0% | 0% | 0% | 0% | 0%
CCc1ccc(-c2ccc(Cl)c(F)c2)cc1C1=C(O)C(C)(C)SC(C)(C)C1=O (single isomer, unassigned) [Compound C-5] | 100% | 90% | 0% | 70% | 70% | 0% | 0% | 0% | 0% | 0%
Cc1ccc(-c2ccc(Cl)cc2Cl)cc1C1=C(O)C(C)(C)[S+]([O-])C(C)(C)C1=O (single isomer, unassigned) [Compound C-7] | 60% | 30% | 0% | 20% | 0% | 0% | 0% | 0% | 0% | 0%
Cc1ccc(-c2ccc(Cl)c(F)c2)cc1C1=C(O)C(C)(C)SC(C)(C)C1=O (single isomer, unassigned) [Compound C-9] | 70% | 10% | 0% | 50% | 40% | 0% | 0% | 0% | 0% | 0%
CCc1ccc(-c2ccc(Cl)cc2Cl)cc1C1=C(O)C(C)(C)[S+]([O-])C(C)(C)C1=O (single isomer, unassigned) [Compound C-10] | 70% | 20% | 0% | 20% | 50% | 40% | 0% | 0% | 20% | 20%
Cc1ccc(-c2cnc(N)nc2)cc1C1=C(O)C(C)(C)OC(C)(C)C1=O [Compound A-104] | – | – | – | – | – | 0% | 0% | 0% | 0% | 0%
Cc1ccc(-c2cc[n+]([O-])cc2)cc1C1=C(O)C(C)(C)OC(C)(C)C1=O [Compound A-105] | – | – | – | – | – | 0% | 0% | 0% | 0% | 0%
